# Test results reported in US6828322B2, “Triazolo-pyridazine derivatives as ligands for GABA receptors” (Merck Sharp & Dohme Ltd., priority 1998, dated 2004).
row,Structure (SMILES),melting point [°C]
1,"Cn1cnc(COc2nn3c(-c4ccccc4F)nnc3cc2C2(C)CCC(F)(F)CC2)n1 [Example 40, 7-(4,4-Difluoro-1-methylcyclohexyl)-3-(2-fluorophenyl)-6-(1-methyl-1H-1,2,4-triazol-3-ylmethoxy)-1,2,4-triazolo [4,3-b]pyridazine]",193
2,"Cc1cc(COc2nn3c(-c4ccccc4F)nnc3cc2C2CCC2)no1 [Example 15, 7-Cyclobutyl-3-(2-fluorophenyl)-6-(5-methylisoxazol-3-ylmethoxy)-1,2,4-triazolo[4,3-b]pyridazine]",150
3,"Cn1ncnc1COc1nn2c(-c3ccccc3F)nnc2cc1C1CCCO1 (stereo not drawn) [Example 43, 3-(2-Fluorophenyl)-6-(2-methyl-2H-1,2,4-triazol-3-ylmethoxy)-7-(tetrahydrofur-2-yl)-1,2,4-triazolo[4,3-b]pyridazine]",136 to 139
4,"Cn1ncnc1COc1nn2c(-c3ccccc3F)nnc2cc1-c1cccc(F)c1 [Example 44, 7-(3-Fluorophenyl)-3-(2-fluorophenyl)-6-(2-methyl-2H-1,2,4-triazol-3-ylmethoxy)-1,2,4-triazolo[4,3-b]pyridazine]",204 to 206
5,"Cn1ncnc1COc1nn2c(-c3ccc(F)cc3F)nnc2cc1C1(C)CCCCC1 [Example 12, 3-(2,4-Difluorophenyl)-7-(1-methylcyclohexyl)-6-(2-methyl-2H-1,2,4-triazol-3-ylmethoxy)-1,2,4-triazolo[4,3-b]pyridazine]",196
6,"CC(C)Cc1cc2nnc(-c3ccccc3F)n2nc1OCc1ncnn1C [Example 28, 3-(2-Fluorophenyl)-7-(2-methylpropyl)-6-(2-methyl-2H-1,2,4-triazol-3-ylmethoxy)-1,2,4-triazolo[4,3-b]pyridazine]",134 to 136
7,"Cn1ccc(COc2nn3c(-c4ccccc4F)nnc3cc2C2CCC2)n1 [Example 14, 7-Cyclobutyl-3-(2-fluorophenyl)-6-(1-methyl-1H-pyrazol-3-ylmethoxy)-1,2,4-triazolo[4,3-b]pyridazine]",184 to 186
8,"Cn1cnc(COc2nn3c(-c4ccccc4F)nnc3cc2C2(C)CCOCC2)n1 [Example 37, 3-(2-Fluorophenyl)-7-(4-methyltetrahydropyran-4-yl)-6-(1-methyl-1H-1,2,4-triazol-3-ylmethoxy)-1,2,4-triazolo [4,3-b]pyridazine]",154
9,"Cn1ccnc1COc1nn2c(-c3ccccc3F)nnc2cc1C1CCC1 [Example 16, 7-Cyclobutyl-3-(2-fluorophenyl)-6-(1-methyl-1H-Imidazol-2-ylmethoxy)-1,2,4-triazolo[4,3-b]pyridazine]",173
10,"Cn1ncnc1COc1nn2c(-c3ccccc3F)nnc2cc1C(F)(F)F [Example 35, 3-(2-Fluorophenyl)-6-(2-methyl-2H-1,2,4-triazol-3-ylmethoxy)-7-trifluoromethyl-1,2,4-triazolo[4,3-b]pyridazine]",123 to 126
11,"Cn1ncnc1COc1nn2c(-c3ccccc3F)nnc2cc1CC1CCCC1 [Example 30, 7-Cyclopentylmethyl-3-(2-fluorophenyl)-6-(2-methyl-2H-1,2,4-triazol-3-ylmethoxy)-1,2,4-triazolo[4,3-b]pyridazine]",135 to 137
12,"Cn1cnnc1COc1nn2c(-c3ccccc3F)nnc2cc1C1CCC1 [Example 17, 7-Cyclobutyl-3-(2-fluorophenyl)-6-(4-methyl-4H-1,2,4-triazol-3-ylmethoxy)-1,2,4-triazolo[4,3-b]pyridazine]",228
13,"Cn1ncnc1COc1nn2c(-c3ccccc3F)nnc2cc1C1(F)CCC1 [Example 25, 7-(1-Fluorocyclobutyl)-3-(2-fluorophenyl)-6-(2-methyl-2H-1,2,4-triazol-3-ylmethoxy)-1,2,4-triazolo[4,3-b]pyridazine]",154 to 162
14,"Cn1ncnc1COc1nn2c(-c3ccc(F)cc3F)nnc2cc1-c1cccs1 [Example 19, 3-(2,4-Difluorophenyl)-6-(2-methyl-2H-1,2,4-triazol-3-ylmethoxy)-7-(thien-2-yl)-1,2,4-triazolo[4,3-b]pyridazine]",209 to 212
15,"CC(C)CCc1cc2nnc(-c3ccccc3F)n2nc1OCc1ncnn1C [Example 29, 3-(2-Fluorophenyl)-7-(3-methylbutyl)-6-(2-methyl-2H-1,2,4-triazol-3-ylmethoxy)-1,2,4-triazolo[4,3-b]pyridazine]",103 to 105
16,"Cn1ncnc1COc1nn2c(-c3ccccc3F)nnc2cc1-c1cccs1 (hydrate or solvate) [Example 18, 3-(2-Fluorophenyl)-6-(2-methyl-2H-1,2,4-triazol-3-ylmethoxy)-7-(thien-2-yl)-1,2,4-triazolo[4,3-b]pyridazine]",189 to 190
17,"Cn1nccc1COc1nn2c(-c3ccccc3F)nnc2cc1C1CCC1 [Example 26, 7-Cyclobutyl-3-(2-fluorophenyl)-6-(2-methyl-2H-pyrazol-3-ylmethoxy)-1,2,4-triazolo[4,3-b]pyridazine]",184 to 186
18,"Cn1cnc(COc2nn3c(-c4ccc(F)cc4F)nnc3cc2C2(C)CCCCC2)n1 [Example 13, 3-(2,4-Difluorophenyl)-7-(1-methylcyclohexyl)-6-(1-methyl-1H-1,2,4-triazol-3-ylmethoxy)-1,2,4-triazolo[4,3-b]pyridazine]",156
19,"Cn1cnc(COc2nn3c(-c4ccccc4F)nnc3cc2C2CCC2)c1 [Example 24, 7-Cyclobutyl-3-(2-fluorophenyl)-6-(1-methyl-1H-imidazol-4-ylmethoxy)-1,2,4triazolo[4,3-b]pyridazine]",176
20,"Cn1ncnc1COc1nn2c(-c3ccccc3F)nnc2cc1C1(C)CCOCC1 [Example 36, 3-(2-Fluorophenyl)-7-(4-methyltetrahydropyran-4-yl)-6-(2-methyl-2H-1,2,4-triazol-3-ylmethoxy)-1,2,4-triazolo [4,3-b]pyridazine]",191
21,"Cn1ncnc1COc1nn2c(-c3ccccc3F)nnc2cc1C1CC(F)(F)C1 [Example 42, 7-(3,3-Difluorocyclobutyl)-3-(2-fluorophenyl)-6-(2-methyl-2H-1,2,4-triazol-3-ylmethoxy)-1,2,4-triazolo[4,3-b]pyridazine]",178
